Assay results reported in ChEMBL document CHEMBL1135451, “Electrochemical and peroxidase oxidation study of N'-hydroxyguanidine derivatives as NO donors” (Bioorg Med Chem Lett, 2002).

Experiment: NO-releasing ability under the oxidation by horseradish peroxidase (HRP) in the presence of H2O2 for 20min, expressed as nitrite concentration
Format: functional

Row | SMILES | Concentration
1 | N/C(=N/Cc1ccc(Cl)cc1)NO | 151 µM
2 | N=C(NO)NCc1ccccc1 | 33 µM
3 | N=C(NO)Nc1ccccc1 | 28 µM
4 | COc1ccc(C/N=C(/N)NO)cc1 | 49 µM
5 | N=C(N)NCCC[C@H](N)C(=O)O | 0 µM
6 | N=C(NO)Nc1ccc(Cl)cc1 | 63 µM
7 | N/C(=N/Cc1ccc([N+](=O)[O-])cc1)NO | 65 µM
8 | Cc1ccc(NC(=N)NO)cc1 | 6 µM
9 | N/C(=N/CCCC(N)C(=O)O)NO (configuration not stated) | 12 µM
10 | N/C(=N/c1ccc(Br)cc1)NO | 54 µM
11 | COc1ccc(NC(=N)NO)cc1 | 24 µM
12 | Cc1ccc(C/N=C(/N)NO)cc1 | 113 µM
